Key:
Type in all cases: biochemical
ITK = molecular target: T1, ITK (Homo sapiens, UniProt Q08881); assay: Inhibition of a panel of kinases, in vitro HotSpot kinase assay: ITK; conditions: E compounds, Table 17
T1 sequence (Q08881 1-620): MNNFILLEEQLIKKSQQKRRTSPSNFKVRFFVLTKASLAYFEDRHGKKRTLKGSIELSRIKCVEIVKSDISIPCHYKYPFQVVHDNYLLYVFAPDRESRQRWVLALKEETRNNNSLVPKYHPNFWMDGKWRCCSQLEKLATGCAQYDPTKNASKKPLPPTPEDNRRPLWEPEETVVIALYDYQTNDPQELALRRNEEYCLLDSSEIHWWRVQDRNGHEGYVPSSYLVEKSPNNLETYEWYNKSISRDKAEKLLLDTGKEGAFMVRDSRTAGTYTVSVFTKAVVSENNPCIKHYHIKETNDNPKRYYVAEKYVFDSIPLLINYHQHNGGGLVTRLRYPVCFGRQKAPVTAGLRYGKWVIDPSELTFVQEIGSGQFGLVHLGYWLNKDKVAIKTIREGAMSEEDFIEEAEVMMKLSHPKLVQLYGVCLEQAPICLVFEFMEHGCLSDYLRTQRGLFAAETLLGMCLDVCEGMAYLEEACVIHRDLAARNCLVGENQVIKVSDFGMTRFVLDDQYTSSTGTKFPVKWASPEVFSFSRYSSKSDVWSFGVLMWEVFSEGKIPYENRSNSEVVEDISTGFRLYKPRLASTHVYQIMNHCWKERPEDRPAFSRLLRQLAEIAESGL
Description: (§1) The degree of inhibition of a panel of kinases is determined using the in vitro HotSpot kinase assay (purified enzymes, ^33P-ATP, an appropriate substrate and 1 μM ATP).

TEC = molecular target: T2, TEC (Homo sapiens, UniProt P42680); assay: Inhibition of a panel of kinases, in vitro HotSpot kinase assay: TEC; conditions: E compounds, Table 17
T2 sequence (P42680 1-631): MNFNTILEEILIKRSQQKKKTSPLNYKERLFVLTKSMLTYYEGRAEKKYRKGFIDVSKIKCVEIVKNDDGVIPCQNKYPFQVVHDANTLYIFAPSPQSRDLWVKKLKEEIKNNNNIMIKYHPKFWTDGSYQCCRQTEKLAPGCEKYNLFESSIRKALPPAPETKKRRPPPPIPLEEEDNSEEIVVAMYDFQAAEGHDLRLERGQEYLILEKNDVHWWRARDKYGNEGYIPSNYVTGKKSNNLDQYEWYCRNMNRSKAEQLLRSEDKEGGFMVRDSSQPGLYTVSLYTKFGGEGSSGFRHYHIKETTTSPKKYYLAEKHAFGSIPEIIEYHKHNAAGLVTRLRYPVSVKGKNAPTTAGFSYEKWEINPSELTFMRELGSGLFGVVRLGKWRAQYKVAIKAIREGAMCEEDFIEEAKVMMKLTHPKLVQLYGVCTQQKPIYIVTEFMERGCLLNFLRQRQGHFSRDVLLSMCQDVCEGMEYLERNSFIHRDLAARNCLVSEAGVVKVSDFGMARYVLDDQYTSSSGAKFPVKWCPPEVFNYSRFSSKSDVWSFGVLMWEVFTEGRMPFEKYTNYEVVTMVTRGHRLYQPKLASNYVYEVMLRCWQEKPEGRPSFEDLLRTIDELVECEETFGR
Description: as §1

BTK-WT = molecular target: T3, BTK-WT (Homo sapiens, UniProt Q06187); assay: Btk in vitro inhibitory activity (one of Method A TR-FRET, Method B electrophoretic mobility shift, Method C radiometric filter binding); conditions: E compounds, Table 17; read-out: IC50 BTK-WT
T3 construct: purified from insect cells as a full-length construct containing an N-terminal 6X-His tag; His6 (N); made in house; host or cells: insect cells (baculovirus Sf21 in Method B)
T3 sequence (Q06187 whole entry): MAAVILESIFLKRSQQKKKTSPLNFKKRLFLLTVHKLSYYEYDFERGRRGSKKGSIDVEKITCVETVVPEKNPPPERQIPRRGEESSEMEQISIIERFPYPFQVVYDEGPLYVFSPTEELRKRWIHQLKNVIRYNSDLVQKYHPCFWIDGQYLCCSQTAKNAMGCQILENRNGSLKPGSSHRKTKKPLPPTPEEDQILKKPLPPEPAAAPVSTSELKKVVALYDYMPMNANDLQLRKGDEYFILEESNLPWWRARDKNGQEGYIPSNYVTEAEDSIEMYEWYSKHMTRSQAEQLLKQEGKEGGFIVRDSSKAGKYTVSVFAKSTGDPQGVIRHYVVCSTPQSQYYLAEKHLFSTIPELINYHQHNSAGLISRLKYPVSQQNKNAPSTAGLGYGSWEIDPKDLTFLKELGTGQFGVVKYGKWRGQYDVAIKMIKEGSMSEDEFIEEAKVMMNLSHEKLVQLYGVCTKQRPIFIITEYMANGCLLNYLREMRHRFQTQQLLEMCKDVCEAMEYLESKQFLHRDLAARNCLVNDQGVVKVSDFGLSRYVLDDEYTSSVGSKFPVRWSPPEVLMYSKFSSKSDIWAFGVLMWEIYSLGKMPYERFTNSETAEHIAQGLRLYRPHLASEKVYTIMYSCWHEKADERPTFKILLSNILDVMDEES

Structure (SMILES) | IC50 (ITK) [nM] | IC50 (TEC) [nM] | IC50 (BTK-WT) [nM]
C=CC(=O)N1CC[C@@H](N(C)c2nnc(C(N)=O)c(Nc3ccc(C(O)(C(F)(F)F)C(F)(F)F)cc3)n2)C1 [Example E-16, (R)-3-((1-acryloylpyrrolidin-3-yl)(methyl)amino)-5-(4-(1,1,1,3,3,3-hexafluoro-2-hydroxypropan-2-yl)phenylamino)-1,2,4-triazine-6-carboxamide] | ≤ 10 | ≤ 10 | ≤ 10
C=CC(=O)N1CCC[C@@H](Nc2nnc(C(N)=O)c(Nc3ccc(C)cc3)n2)C1 [Example E-43, (R)-3-(1-acryloylpiperidin-3-ylamino)-5-(p-tolylamino)-1,2,4-triazine-6-carboxamide] | 10 to 100 | ≤ 10 | ≤ 10
C=CC(=O)N1CCC[C@@H](Nc2nnc(C(N)=O)c(Nc3ccc(C4CCN(C5CCCC5)CC4)cc3)n2)C1 [Example E-48, (R)-3-(1-acryloylpiperidin-3-ylamino)-5-(4-(1-cyclopentylpiperidin-4-yl)phenylamino)-1,2,4-triazine-6-carboxamide] | ≤ 10 | ≤ 10 | ≤ 10
C=CC(=O)N1CCC[C@@H](Nc2nnc(C(N)=O)c(Nc3ccc(C(C)(C)C#N)cc3)n2)C1 [Example E-49, (R)-3-(1-acryloylpiperidin-3-ylamino)-5-(4-(2-cyanopropan-2-yl)phenylamino)-1,2,4-triazine-6-carboxamide] | ≤ 10 | ≤ 10 | ≤ 10
C=CC(=O)N1CCC[C@@H](Nc2nnc(C(N)=O)c(Nc3ccc(Cn4cncn4)cc3)n2)C1 [Example E-52, (R)-5-(4-((1H-1,2,4-triazol-1-yl)methyl)phenyl-amino)-3-(1-acryloylpiperidin-3-ylamino)-1,2,4-triazine-6-carboxamide] | ≤ 10 | ≤ 10 | ≤ 10
C=CC(=O)N1CCC[C@@H](Nc2nnc(C(N)=O)c(Nc3cncc(F)c3)n2)C1 [Example E-53, (R)-3-(1-acryloylpiperidin-3-ylamino)-5-(5-fluoropyridin-3-ylamino)-1,2,4-triazine-6-carboxamide] | 100 to 1000 | ≤ 10 | ≤ 10
C=CC(=O)N1CCC[C@@H](Nc2nnc(C(N)=O)c(Nc3cnc4ccccc4c3)n2)C1 [Example E-54, (R)-3-(1-acryloylpiperidin-3-ylamino)-5-(quinolin-3-ylamino)-1,2,4-triazine-6-carboxamide] | 10 to 100 | ≤ 10 | ≤ 10
C=CC(=O)N1CCC[C@@H](Nc2nnc(C(N)=O)c(Nc3ccc(CN(C(=O)OCc4ccccc4)[C@@H](C)C(C)(C)C)cc3)n2)C1 [Example E-56, benzyl 4-(3-((R)-1-acryloylpiperidin-3-ylamino)-6-carbamoyl-1,2,4-triazin-5-ylamino)benzyl((S)-3,3-dimethylbutan-2-yl)carbamate] | 10 to 100 | ≤ 10 | ≤ 10
C=CC(=O)N1CCC[C@@H](Nc2nnc(C(N)=O)c(Nc3cccc(-c4ncco4)c3)n2)C1 [Example E-65, (R)-3-(1-acryloylpiperidin-3-ylamino)-5-(3-(oxazol-2-yl)phenylamino)-1,2,4-triazine-6-carboxamide] | 10 to 100 | ≤ 10 | ≤ 10
C=CC(=O)N1CCC[C@@H](Nc2nnc(C(N)=O)c(Nc3cnn(C)c3)n2)C1 [Example E-73, (R)-3-(1-acryloylpiperidin-3-ylamino)-5-(1-methyl-1H-pyrazol-4-ylamino)-1,2,4-triazine-6-carboxamide] | ≤ 10 | ≤ 10 | ≤ 10
C=CC(=O)N1CCC[C@@H](Nc2nnc(C(N)=O)c(Nc3ccc(Cl)cc3)n2)C1 [Example E-74, (R)-3-(1-acryloylpiperidin-3-ylamino)-5-(4-chlorophenylamino)-1,2,4-triazine-6-carboxamide] | 10 to 100 | ≤ 10 | ≤ 10
C=CC(=O)N1CCC[C@@H](Nc2nnc(C(N)=O)c(Nc3cc(F)cc(Cl)c3)n2)C1 [Example E-76, (R)-3-(1-acryloylpiperidin-3-ylamino)-5-(3-chloro-5-fluorophenylamino)-1,2,4-triazine-6-carboxamide] | 10 to 100 | ≤ 10 | ≤ 10
C=CC(=O)N1CCC[C@@H](Nc2nnc(C(N)=O)c(Nc3ccc(S(F)(F)(F)(F)F)cc3)n2)C1 [Example E-78, (R)-3-(1-acryloylpiperidin-3-ylamino)-5-(4-(penta-fluorothio)phenyl-amino)-1,2,4-triazine-6-carboxamide] | 10 to 100 | ≤ 10 | ≤ 10
C=CC(=O)N1CCC[C@@H](Nc2nnc(C(N)=O)c(Nc3ccc(C#N)cc3)n2)C1 [Example E-79, (R)-3-(1-acryloylpiperidin-3-ylamino)-5-(4-cyanophenylamino)-1,2,4-triazine-6-carboxamide] | 10 to 100 | ≤ 10 | ≤ 10

Second part, the compound after the results:

IC50 (ITK) [nM] | IC50 (TEC) [nM] | IC50 (BTK-WT) [nM] | Structure (SMILES)
100 to 1000 | 100 to 1000 | 10 to 100 | Cc1cc(Nc2nc(N(C)[C@@H]3CCN(C(=O)c4ccc(C(O)(C(F)(F)F)C(F)(F)F)cc4)C3)nnc2C(N)=O)sn1 [Example E-13, (R)-3-((1-(4-(1,1,1,3,3,3-hexafluoro-2-hydroxypropan-2-yl)benzoyl)pyrrolidin-3-yl)(methyl)amino)-5-(3-methylisothiazol-5-ylamino)-1,2,4-triazine-6-carboxamide]
10 to 100 | ≤ 10 | ≤ 10 | C=CC(=O)N1CCC[C@@H](Nc2nnc(C(N)=O)c(Nc3ccc(C(C)C)c(C)c3)n2)C1 [Example E-42, (R)-3-(1-acryloylpiperidin-3-ylamino)-5-(4-isopropyl-3-methylphenylamino)-1,2,4-triazine-6-carboxamide]
10 to 100 | ≤ 10 | ≤ 10 | C=CC(=O)N1CCC[C@@H](Nc2nnc(C(N)=O)c(Nc3ccc(I)cc3)n2)C1 [Example E-50, (R)-3-(1-acryloylpiperidin-3-ylamino)-5-(4-iodophenylamino)-1,2,4-triazine-6-carboxamide]
≤ 10 | ≤ 10 | ≤ 10 | C=CC(=O)N1CCC[C@@H](Nc2nnc(C(N)=O)c(Nc3ccc4ncsc4c3)n2)C1 [Example E-51, (R)-3-(1-acryloylpiperidin-3-ylamino)-5-(benzo[d]thiazol-6-ylamino)-1,2,4-triazine-6-carboxamide]
≤ 10 | ≤ 10 | ≤ 10 | C=CC(=O)N1CCC[C@@H](Nc2nnc(C(N)=O)c(Nc3ccc4c(cnn4CC)c3)n2)C1 [Example E-66, (R)-3-(1-acryloylpiperidin-3-ylamino)-5-(1-ethyl-1H-indazol-5-ylamino)-1,2,4-triazine-6-carboxamide]
10 to 100 | ≤ 10 | ≤ 10 | C=CC(=O)N1CCC[C@@H](Nc2nnc(C(N)=O)c(Nc3ccc(-n4cncn4)cc3)n2)C1 [Example E-69, (R)-5-(4-(1H-1,2,4-triazol-1-yl)phenylamino)-3-(1-acryloylpiperidin-3-ylamino)-1,2,4-triazine-6-carboxamide]
10 to 100 | ≤ 10 | ≤ 10 | C=CC(=O)N1CCC[C@@H](Nc2nnc(C(N)=O)c(Nc3cccc(Cl)c3)n2)C1 [Example E-75, (R)-3-(1-acryloylpiperidin-3-ylamino)-5-(3-chlorophenylamino)-1,2,4-triazine-6-carboxamide]
10 to 100 | ≤ 10 | ≤ 10 | C=CC(=O)N1CCC[C@@H](Nc2nnc(C(N)=O)c(Nc3cccc(C#N)c3)n2)C1 [Example E-77, (R)-3-(1-acryloylpiperidin-3-ylamino)-5-(3-cyanophenylamino)-1,2,4-triazine-6-carboxamide]

Reference: US20210070748A1, “INHIBITORS OF BRUTONS TYROSINE KINASE” (Pharmacyclics LLC, priority 2015, published 2021)
